Holding throughout (format): cell-based
The subject of one experiment is M238. Briefly: CellTiter-Glo cell viability, M238. Here is the method:
(§1) To determine if MI-181 had broad anti-cancer activity, we treated a diverse panel of cancer cell lines including cervical adenocarcinoma (HeLa), breast adenocarcinoma (MCF7), melanoma (M233), osteosarcoma (U205), acute lymphoblastic leukemia (CCRF-CEM), non-small cell lung carcinoma (NCI-H460), and breast adenocarcinoma (MCF7) with MI-181 and determined its cell viability IC50 (FIGS. 13A and 13B). […] Therefore, the efficacy of MI-181 was analyzed in a panel of melanoma cell lines with defined genetic backgrounds including BRAF^V600E and NRAS^Q61L mutations and varied sensitivities to Vemurafenib (BRAF inhibitor) and Trametinib (MEK inhibitor), which are currently used to treat BRAF^V600E melanomas^43,44 (FIG. 10c). […] As a general trend BRAF^V600E cell lines were slightly more sensitive than NRAS^Q61L cell lines and MI-181 was effective in Vemurafenib and Trametinib resistant cell lines (FIG. 10c and Table 3). Finally, we tested the ability of MI-181 to inhibit melanoma colony formation using the M233 and M308 cell lines (both resistant to Vemurafenib). Indeed, MI-181 was a potent inhibitor of colony formation (percentage colony formation for 10 nM MI-181=0.2±0.1 and 0.8±0.7; for 10 nM colchicine=0.1±0.06 and 1.5±0.5; and for 10 nM Vemurafenib=94±7 and 102±5) (FIG. 10d). Thus, MI-181 is a potent inhibitor of melanoma cell lines. […]
Background: In ATP-based viability assays light output follows the ATP content of the culture.

A further experiment has as its system M409. Briefly: CellTiter-Glo cell viability, M409. The protocol:
as §1

A further experiment relates to cells. The experiment can be described thus: Immunoblot analysis of synchronized cells and drug washout (mitotic arrest reversibility). The protocol: Phospho-histone-H3-488 (Ser10) (p-H3-488, Cell Signaling), α-tubulin (Serotec), AurKB (BD Transduction), Anti-Centromere-Antibodies (ACA, Cortex Biochem), cyclin A and B (Santa Cruz Biotechnology), and SECURIN (Gene Tex). BubR1 and Bub1 were from Hongtao Yu. FITC-, Cy3- and Cy5-conjugated secondary antibodies were from Jackson Immuno Research.
Cells were synchronized in G1/S, released into the cell cycle in the presence of DMSO or MI-181, and cell extracts were prepared at several time points post-release. […] Additionally, the MI-182-induced mitotic arrest was reversible, as cells exited mitosis within 2 hours of drug washout (FIG. 9).
(A western blot detects proteins with antibodies after separation by electrophoresis.)

These results are taken from patent publication US10913750B2, “Tubulin-binding compounds, compositions and uses related thereto” (The Regents of the University of California, priority 2015, dated 2021).

What is called IC50 is the concentration needed to halve the response being measured. Higher therefore signals lower potency.

Bounds are passed on as bounds.

For `Cc1cc2nc(/C=C/c3cccnc3)sc2cc1C` [MI-181], the IC50 in the experiment on M238 came to 30.5 nM; in the experiment with M409, 41.9 nM. The “reversibility of induced mitotic arrest” value in the experiment on cells (FIG. 9) is reported as “reversible”. In addition, the “cell cycle state by immunoblot” value in the experiment with cells (cells synchronized in G1/S, released in presence of drug) was “arrested in mitosis (p-H3 positive), activated the SAC (BubR1 remained phosphorylated) and stabilized cyclin B while degrading cyclin A”. In addition, in the experiment with cells (drug washout), the “time to exit mitosis after drug washout” value was at most 2 h.
